Measured values reported in paper PMC3599939 (BMC Infectious Diseases, 2013).

System: influenza virus neuraminidase (NA)
Format: biochemical

CCOC(=O)C1=C[C@@H](OC(CC)CC)[C@H](NC(C)=O)[C@@H](N)C1 [Oseltamivir, oseltamivir]
Phenotype (S/R): R and S
sensitivity of viruses to Oseltamivir: sensitive
